Test system: ADN
Assay: Association with DNA, ethidium bromide fluorescence
Type: binding
Conditions: 6 nmoles d'agent transfectant/µg d'ADN, 5 µg bromure d'éthidium/ml; for fluorescence dans le chlorure de sodium NaCl à 300 mM: NaCl 300 mM; for fluorescence dans l'eau: in water
From the text: • Les purifications sur HPLC (High Performance Liquid Chromatography) ont été effectuées avec un appareil Waters LC 4000, sur une colonne Vydac C4 éluée par un gradient d'acétonitrile dans l'eau. • Les mesures de fluorescence ont été réalisées sur Perkin Elmer LS50B, en utilisant des longueurs d'onde d'excitation et d'émission respectivement de 260 nm et 590 nm. Les largeurs de fentes pour l'excitation et l'émission sont réglées à 5 nm. La valeur de fluorescence est enregistrée après ajout de 5 µg de bromure d'éthidium/ml en concentration finale. • Les spectres de résonance magnétique nucléaire (RMN) ont été enregistrés, à 300,13 MHz pour le proton ou à 75,47 MHz pour le carbone, sur un appareil Bruker MSL 300 dans le chloroforme deutérié.
Les agents transfectants selon l'invention ont été mis en solution dans l'eau à 10 mM. Les solutions ainsi obtenues sont transparentes et correspondent à une organisation sous forme de micelles de lipide cationique.
Les complexes agent tranfectant/ADN ont été réalisés suivant un rapport de 6 nmoles d'agent transfectant/µg d'ADN.

Substance	fluorescence dans le chlorure de sodium NaCl à 300 mM	fluorescence dans l'eau
méthyl-dioctadécylamido-phtalyl-6-tri-O-(amino-2'-éthyl)-2,3,4-β-D-galactopyranoside [8(b)]	60%	7%
méthyl-dioctadécylamido-succinyl-6-tri-O-(amino-2'-éthyl)-2,3,4-β-D-galactopyranoside [8(a)]	55%	6%
